US20260042747A1, “KIT INHIBITORS, COMPOUNDS, PHARMACEUTICAL COMPOSITIONS, AND METHODS OF USE THEREOF” (Alivexis, Inc., priority 2022, published 2026)
Where a name gives a salt, the structure may show the parent alone.

Biological target: recombinant human KIT tyrosine kinase protein (Homo sapiens (Human), UniProt P10721)
Assay: KIT tyrosine kinase assay (ADP-Glo)
Format: biochemical
Method: An in vitro assay utilizing the recombinant human KIT tyrosine kinase protein was developed to measure compound inhibition of KIT. KIT tyrosine kinase activity was measured by the ADP-Glo Kinase Assay system with poly […]) peptide substrate. Kinase Assay was performed in white 384-well plates and the luminescence was measured by Victor X5 Multilabel Counter (Perkin Elmer). Recombinant intracellular domain of human KIT protein was purchased from Carna Biosciences (Kobe, Japan). Poly […]) peptide was purchased from Sigma-Aldrich (St. Louis, Missouri, USA). ADP-Glo Kinase Assay reagent was purchased from Promega (Madison, Wisconsin, USA). Each test compound was dissolved in 100% DMSO to prepare 10 mM stock solutions. […] After the preincubation, 3 μL of substrate/ATP mixture was added and incubated for 1 hour at room temperature. The tyrosine phosphorylation by KIT kinase was quantified by ADP-Glo kinase assay kit following the manufacturer's protocol. Briefly, the phosphorylation reaction was terminated by adding 10 μL ADP-Glo reagent and incubated for 60 minutes at room temperature. 20 μL of Kinase Detection Reagent was added to each well and luminescence was measured by plate reader. […] Half maximal inhibitory concentration (IC50) was calculated by a Four […] Logistic Regression model using GraphPad Prism (GraphPad Software). The value without recombinant KIT protein and without test compound was used as a negative control (assay background).

Chain of recombinant human KIT tyrosine kinase protein (P10721 546-976): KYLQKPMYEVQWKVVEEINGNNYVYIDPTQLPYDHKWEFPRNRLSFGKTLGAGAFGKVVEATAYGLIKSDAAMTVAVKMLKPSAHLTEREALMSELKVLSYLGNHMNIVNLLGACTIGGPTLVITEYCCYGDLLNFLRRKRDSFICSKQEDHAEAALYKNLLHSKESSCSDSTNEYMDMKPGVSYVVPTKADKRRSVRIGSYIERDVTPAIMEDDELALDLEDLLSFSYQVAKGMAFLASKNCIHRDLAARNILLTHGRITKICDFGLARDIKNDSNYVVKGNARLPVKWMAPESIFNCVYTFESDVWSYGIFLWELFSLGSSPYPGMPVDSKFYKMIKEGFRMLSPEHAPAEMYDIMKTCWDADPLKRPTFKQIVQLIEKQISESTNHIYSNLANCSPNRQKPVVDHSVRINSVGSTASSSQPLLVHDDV

Work on `CCN(CC)c1ccc(CNC(=O)c2ccc3c(c2)[nH]c(=O)n3C)cn1` [Example 85] yielded an IC50 (Table 98) of 150 nM.

Work on `Cn1c(=O)[nH]c2cc(C(=O)NCc3ccc(Oc4ccc5[nH]ncc5c4)nc3)ccc21` [Example 46] yielded an IC50 (Table 98) of 27 nM.

Compound `CC(C)N(C)c1ccc(C(NC(=O)c2ccc3c(c2)[nH]c(=O)n3C)c2ccccc2)cn1` (stereo not shown) [Example 113, N-((6-(Isopropyl(methyl)amino)pyridin-3-yl)(phenyl)methyl)-1-methyl-2-oxo-2,3-dihydr o-1H-benzimidazole-5-carboxamide] has an IC50 (Table 99) of 2000 nM.

`Cn1c(=O)[nH]c2cc(C(=O)NCc3ccc(NC4CCC(F)(F)CC4)nc3)ccc21` [Example 132] was tested, and the IC50 (Table 99) was 131 nM.

`CC(NC(=O)c1ccc2c(c1)[nH]c(=O)n2C)c1ccc(Oc2ccc(F)c(F)c2)nc1` (stereo not shown) [Example 51] gave an IC50 (Table 98) of 210 nM.

Compound `Cc1cc(CNC(=O)c2ccc3c(c2)[nH]c(=O)n3C)cnc1Oc1ccc(F)cc1` [Example 45] has an IC50 (Table 98) of 130 nM.

For `Cn1c(=O)[nH]c2cc(C(=O)NCc3cnc(Oc4ccc(F)cc4)s3)ccc21` [Compound 5, N-((2-(4-Fluorophenoxy)thiazol-5-yl)methyl)-1-methyl-2-oxo-2,3-dihydro-1H-benz imidazole-5-carboxamide], the IC50 (Table 98) was 3200 nM.

In the case of `Cn1c(=O)[nH]c2cc(C(=O)NCc3ccc(N(c4ccc(F)cc4)C4CC4)nc3)ccc21` [Compound 23, N-((6-(Cyclopropyl(4-fluorophenyl)amino)pyridin-3-yl)methyl)-1-methyl-2-oxo-2,3-dihy dro-1H-benzimidazole-5-carboxamide], the IC50 (Table 98) is reported as 78 nM.

For `Cn1c(=O)[nH]c2cc(C(=O)NCc3ccc(Oc4cccc(C#N)c4)nc3)ccc21` [Compound 22, N-((6-(3-Cyanophenoxy)pyridin-3-yl)methyl)-1-methyl-2-oxo-2,3-dihydro-1H-benzimid azole-5-carboxamide trifluoroacetate], the IC50 (Table 98) was 460 nM.

`Cn1c(=O)[nH]c2cc(C(=O)NCc3ccc(OC4CC(F)(F)C4)nc3)ccc21` [Example 118] was tested, and the IC50 (Table 99) was 632 nM.

`Cn1c(=O)[nH]c2cc(C(=O)NCc3cnc4c(c3)ncn4-c3ccccc3F)ccc21` [Example 101] was tested, and the IC50 (Table 98) was 3300 nM.

Work on `Cn1c(=O)[nH]c2cc(C(=O)NCc3ccc(Oc4ccc(Cl)c(F)c4)nc3)ccc21` [Example 38] yielded an IC50 (Table 98) of 60 nM.

`C[C@H](NC(=O)c1ccc2c(c1)[nH]c(=O)n2C)c1ccc(Oc2cccc(F)c2F)nc1` [Example 55] showed an IC50 (Table 98) of 37 nM.

Work on `CC(NC(=O)c1ccc2c(c1)[nH]c(=O)n2C)c1ccc(Oc2ccc(F)cc2F)nc1` (stereo not shown) [Compound 27, N-(1-(6-(2,4-Difluorophenoxy)pyridin-3-yl)ethyl)-1-methyl-2-oxo-2,3-dihydro-1H-benzi midazole-5-carboxamide] yielded an IC50 (Table 98) of 74 nM.

With `Cn1c(=O)[nH]c2cc(C(=O)NCc3cnc4c(c3)ncn4-c3c(F)cccc3F)ccc21` [Compound 21, N-((3-(2,6-Difluorophenyl)-3H-imidazo[4,5-b]pyridin-6-yl)methyl)-1-methyl-2-oxo-2,3-dihydro-1H-benzimidazole-5-carboxamide trifluoroacetate] the IC50 (Table 98) was 660 nM.

With `O=C(NCc1ccc(Nc2ccc(F)cc2)nc1)c1ccc2[nH]c(=O)[nH]c2c1` [Compound 8, N-((6-((4-Fluorophenyl)amino)pyridin-3-yl)methyl)-2-oxo-2,3-dihydro-1H-benzimidazole-5-carboxamide trifluoroacetate] the IC50 (Table 98) was 190 nM.

`CN(c1ccc(F)cc1)c1ccc(CNC(=O)c2ccc3[nH]c(=O)[nH]c3c2)cn1` [Example 56] gave an IC50 (Table 98) of 29 nM.

Work on `Cn1c(=O)[nH]c2cc(C(=O)NCc3ccc(OC4CCC(F)(F)CC4)nc3)ccc21` [Example 47] yielded an IC50 (Table 98) of 56 nM.

With `Cc1cc(CNC(=O)c2ccc3c(c2)[nH]c(=O)n3C)cnc1Oc1ccccc1` [Example 43] the IC50 (Table 98) was 140 nM.

`Cn1c(=O)[nH]c2cc(C(=O)NCc3cnc(Oc4ccc(F)cc4)cn3)ccc21` [Example 49] gave an IC50 (Table 98) of 950 nM.

`CC(NC(=O)c1ccc2c(c1)[nH]c(=O)n2C)c1ccc(Oc2cccc(F)c2F)nc1` (stereo not shown) [Example 53] was tested, and the IC50 (Table 98) was 79 nM.

Compound `CN(c1ccc(CNC(=O)c2ccc3c(c2)[nH]c(=O)n3C)cn1)C1CCOCC1` [Example 60] has an IC50 (Table 98) of 140 nM.

For `CN(Cc1ccccc1)c1ncc(CNC(=O)c2ccc3c(c2)[nH]c(=O)n3C)s1` [Example 91], the IC50 (Table 98) was 120 nM.

`CC(C)N(C)c1ccc(C(CO)NC(=O)c2ccc3c(c2)[nH]c(=O)n3C)cn1` (stereo not shown) [Example 114b, N-(2-hydroxy-1-(6-(Isopropyl(methyl)amino)pyridin-3-yl)ethyl)-1-methyl-2-oxo-2,3-dih ydro-1H-benzimidazole-5-carboxamide] showed an IC50 (Table 99) of 317 nM.

`CC(NC(=O)c1ccc2c(c1)[nH]c(=O)n2C)c1ccc(Oc2ccc(Cl)cc2F)nc1` (stereo not shown) [Example 52] gave an IC50 (Table 98) of 24 nM.

`Cn1c(=O)[nH]c2cc(C(=O)NCc3ccc(Oc4c(F)cccc4F)nc3)ccc21` [Example 40] showed an IC50 (Table 98) of 39 nM.

Compound `CC(CO)N(C)c1ccc(CNC(=O)c2ccc3c(c2)[nH]c(=O)n3C)cn1` (stereo not shown) [Example 133] has an IC50 (Table 99) of 75 nM.

Compound `Cc1ccc(CN(C)c2ccc(CNC(=O)c3ccc4c(c3)[nH]c(=O)n4C)cn2)nc1` [Example 79] has an IC50 (Table 98) of 210 nM.

In the case of `CC(NC(=O)c1ccc2c(c1)[nH]c(=O)n2C)c1ccc(N(C)C(C)C)nc1` (single isomer, unassigned) [130 Peak 2], the IC50 (Table 99) is reported as 1040 nM.

Work on `Cn1c(=O)[nH]c2cc(C(=O)NCc3ccc(Oc4cc(F)ccc4F)nc3)ccc21` [Example 41] yielded an IC50 (Table 98) of 36 nM.

`Cn1c(=O)[nH]c2cc(C(=O)NCc3ccc(Oc4ccc(F)c(F)c4)nc3)ccc21` [Example 37] showed an IC50 (Table 98) of 310 nM.

In the case of `Cn1c(=O)[nH]c2cc(C(=O)NCc3ccc(Oc4ccc5cn[nH]c5c4)nc3)ccc21` [Example 44], the IC50 (Table 98) is reported as 120 nM.

With `CN1CCC(N(C)c2ccc(CNC(=O)c3ccc4c(c3)[nH]c(=O)n4C)cn2)CC1` [Compound 24, 1-Methyl-N-((6-(methyl(1-methylpiperidin-4-yl)amino)pyridin-3-yl)methyl)-2-oxo-2,3-dihydro-1H-benzimidazole-5-carboxamide] the IC50 (Table 98) was 340 nM.

In the case of `CC(c1ccc(CNC(=O)c2ccc3c(c2)[nH]c(=O)n3C)cn1)N1CCC(C(F)(F)F)C1` (stereo not shown) [Example 112, 1-Methyl-2-oxo-N-((6-(1-(3-(trifluoromethyl)pyrrolidin-1-yl)ethyl)pyridin-3-yl)methyl)-2,3-dihydro-1H-benzimidazole-5-carboxamide], the “KIT % at single concentration (printed in KIT IC50 column)” value (@10 uM) is reported as 59%@10 uM.

Work on `C[C@H](NC(=O)c1ccc2c(c1)[nH]c(=O)n2C)c1ccc(N(C)c2ccccc2F)nc1` [Example 88] yielded an IC50 (Table 98) of 98 nM.

With `Cn1c(=O)[nH]c2cc(C(=O)NCc3cnc(NC4CCC(F)(F)CC4)s3)ccc21` [Compound 25, N-((2-((4,4-Difluorocyclohexyl)amino)thiazol-5-yl)methyl)-1-methyl-2-oxo-2,3-dihydro-1H-benzimidazole-5-carboxamide] the IC50 (Table 98) was 360 nM.

For `COC(=O)C(NC(=O)c1ccc2c(c1)[nH]c(=O)n2C)c1ccc(N(C)C(C)C)nc1` (stereo not shown) [Example 114a, Methyl 2-(6-(isopropyl(methyl)amino)pyridin-3-yl)-2-(1-methyl-2-oxo-2,3-dihydro-1H-benzimidazole-5-carboxamido)acetate], the IC50 (Table 99) was 108 nM.

Compound `C[C@H](NC(=O)c1ccc2c(c1)[nH]c(=O)n2C)c1ccc(N(C)c2ccc(F)cc2)nc1` [Compound 13, (S)—N-(1-(6-((4-Fluorophenyl)(methyl)amino)pyridin-3-yl)ethyl)-1-methyl-2-oxo-2,3-d ihydro-1H-benzimidazole-5-carboxamide] has an IC50 (Table 98) of 40 nM.

Work on `CN(CC1CC(F)(F)C1)c1ncc(CNC(=O)c2ccc3c(c2)[nH]c(=O)n3C)s1` [Example 93] yielded an IC50 (Table 98) of 270 nM.

`CC(C)N(C)c1cnc(CNC(=O)c2ccc3c(c2)[nH]c(=O)n3C)cn1` [Example 94] was tested, and the IC50 (Table 98) was 120 nM.

`CN1CCN(Cc2cccc(N(C)c3ccc(CNC(=O)c4ccc5c(c4)[nH]c(=O)n5C)cn3)c2)CC1` [Compound 26, 1-Methyl-N-((6-(methyl(3-((4-methylpiperazin-1-yl)methyl)phenyl)amino)pyridin-3-yl)methyl)-2-oxo-2,3-dihydro-1H-benzimidazole-5-carboxamide trifluoroacetate] was tested, and the IC50 (Table 98) was 270 nM.

Compound `Cn1c(=O)[nH]c2cc(C(=O)NCc3ccc(C(F)c4ccc(F)cc4)nc3)ccc21` (stereo not shown) [Compound 16, N-((6-(Fluoro(4-fluorophenyl)methyl)pyridin-3-yl)methyl)-1-methyl-2-oxo-2,3-dihydro-1H-benzimidazole-5-carboxamide] has an IC50 (Table 98) of 61 nM.

Compound `C[C@H](NC(=O)c1ccc2c(c1)[nH]c(=O)n2C)c1ccc(Oc2ccc(F)c(F)c2)nc1` [Compound 7, (S)—N-(1-(6-(3,4-Difluorophenoxy)pyridin-3-yl)ethyl)-1-methyl-2-oxo-2,3-dihydro-1H-benzimidazole-5-carboxamide] has an IC50 (Table 98) of 40 nM.

With `CN(c1ccc(CNC(=O)c2ccc3c(c2)[nH]c(=O)n3C)cn1)C1CCC2(CC1)COC2` [Example 123] the IC50 (Table 99) was 126 nM.

`Cn1c(=O)[nH]c2cc(C(=O)NCc3ccc(N(C)[C@H]4C[C@H](C(F)(F)F)C4)nc3)ccc21` [Example 87] gave an IC50 (Table 98) of 68 nM.

Work on `Cn1c(=O)[nH]c2cc(C(=O)NCc3ccc(Oc4c(F)cc(F)cc4F)nc3)ccc21` [Example 42] yielded an IC50 (Table 98) of 27 nM.

Work on `CN(Cc1ccncn1)c1ccc(CNC(=O)c2ccc3c(c2)[nH]c(=O)n3C)cn1` [Example 81] yielded an IC50 (Table 98) of 150 nM.

In the case of `CC(C)Oc1ccc(CNC(=O)c2ccc3c(c2)[nH]c(=O)n3C)cn1` [Example 117], the IC50 (Table 99) is reported as 274 nM.

Work on `C[C@H](NC(=O)c1ccc2c(c1)[nH]c(=O)n2C)c1ccc(Oc2ccc(Cl)cc2F)nc1` [Example 54] yielded an IC50 (Table 98) of 33 nM.
